Several values for one entry are separate records, joined by “and”; a condition that tells them apart may be missing. Equal entries are not always repeated. Where two headings read alike, the source gives them in different places.
Assays:
[1] = tested on: Monilinia fructicola; experiment: Spore germination inhibition; format: cell-based; conditions: for inhibition at 1 ppm / inhibition at 10 ppm: 24 hours; for inhibition at 100 ppm: 24 h, read-out: % Inhibition of Spore Germination
Excerpt: (§1) The test procedure involves the preparation of a 100, 10 or 1 ppm. suspension of test compound in water. The solutions are placed in one dram "opticlear" vials and separately inoculated with one drop of a spore suspension prepared from seven-day cultures of Aspergillus niger and 14-day old cultures of Monilinia fructicola and Stemphylium sarcinaeforme,all grown on potato-dextrose agar. The vials containing the separately inoculated solutions of test compounds are then capped and placed on a rotating tumbler for 24 hours to assure contact of the organism with the test compound. After 24 hours, the vials are removed and examined for inhibition of […].

[2] = tested on: Stemphylium sarcinaeforme; experiment: Spore germination inhibition; format: cell-based; conditions: Stemphylium sarciniforme; for inhibition at 100 ppm: 24 h, read-out: % Inhibition of Spore Germination; for inhibition at 1 ppm / inhibition at 10 ppm: 24 hours
Excerpt: as §1

[3] = tested on: Aspergillus niger; experiment: Spore germination inhibition; format: cell-based; conditions: 24 hours
Excerpt: as §1

[4] = tested on: Stemphylium sarcinaeforme; experiment: Agar dilution plate; format: cell-based; conditions: Ss; 100 ppm, 72 hours at 23° C
Description: (§2) Test compounds were incorporated in a Sabouraud's dextrose agar in an amount sufficient to provide the active ingredient in a concentration of about 100 ppm. A twenty-ml. sample of the agar mixture is placed in a petri dish and permitted to solidify. An agar sample is inoculated with the test organism set forth below and then covered and incubated for a period of about 72 hours at 23° C. After incubation, growth observations are made. The test results are recorded and the test is repeated twice for the purpose of comparison.
(§3) The data obtained with a variety of test organisms is shown in the table below, and ratings are shown as 0 or 5. O indicates no control, 5 indicates 100% effectiveness of the test compound against the specified organism.
Ss= Stemphylium sarcinaeforme

[5] = tested on: Pseudomonas solaracaerum; format: cell-based; conditions: 100 ppm, 72 hours at 23° C
[6] = tested on: Xanthomonas vesicatoria; format: cell-based; conditions: 100 ppm; subcultures 72 hours at 37° C; further: key: 0: No Effect; 9: Kill of Bacteria; 5: Stasis, but not Kill of all Bacteria
[7] = tested on: Aerobacter aerogenes; format: cell-based; conditions: 100 ppm; subcultures 72 hours at 37° C; further: key: 0: No Effect; 9: Kill of Bacteria; 5: Stasis, but not Kill of all Bacteria
[8] = tested on: Verticillium albo-atrum; experiment: Agar dilution plate; format: cell-based; conditions: Va; 100 ppm, 72 hours at 23° C
Description: as §2, §3
Va= Verticillium albo-atrum

[9] = tested on: Piricularia oryzae; format: in vivo; design: scale not given here; conditions: Rice Blast, five days
[10] = tested on: Collectotrichum lagenarium; experiment: Agar dilution plate; format: cell-based; conditions: Cl; 100 ppm, 72 hours at 23° C
Description: as §2, §3
Cl= Collectotrichum lagenarium

[11] = tested on: Phytophthora infestans; format: in vivo; design: scale not given here; conditions: Tomato Late Blight, five days
[12] = tested on: Staphylococcus aureus; format: cell-based; conditions: 100 ppm; subcultures 72 hours at 37° C; further: key: 0: No Effect; 9: Kill of Bacteria; 5: Stasis, but not Kill of all Bacteria
[13] = tested on: Venturia inaequalis; conditions: in vivo; further: key: 5: clean, no disease; 4: trace of disease; 3: slight disease; 2: moderate disease; 1: severe disease; 0: like controls
[14] = tested on: Monilinia fructicola; experiment: Agar dilution plate; format: cell-based; conditions: Mf; 100 ppm, 72 hours at 23° C
Description: as §2, §3

[15] = tested on: Aspergillus niger; experiment: Agar dilution plate; format: cell-based; conditions: An; 100 ppm, 72 hours at 23° C
Description: as §2, §3

[16] = tested on: Fusarium lycopersici; experiment: Agar dilution plate; format: cell-based; conditions: Fl; 100 ppm, 72 hours at 23° C
Description: as §2, §3

[17] = tested on: Rhizoctonia solani; experiment: Agar dilution plate; format: cell-based; conditions: Rs; 100 ppm, 72 hours at 23° C
Description: as §2, §3

[18] = tested on: Pythium de Baryanum; experiment: Agar dilution plate; format: cell-based; conditions: Pd; 100 ppm, 72 hours at 23° C
Description: as §2, §3

[19] = tested on: Colletotrichum lagenarium; conditions: in vivo; further: key: 5: clean, no disease; 4: trace of disease; 3: slight disease; 2: moderate disease; 1: severe disease; 0: like controls

Row | Compound | inhibition at 1 ppm [1] | inhibition at 10 ppm [1] | inhibition at 100 ppm [1] | inhibition at 100 ppm [2] | inhibition at 1 ppm [2] | inhibition at 10 ppm [2] | inhibition at 1 ppm [3] | inhibition at 10 ppm [3] | inhibition at 100 ppm [3] | Agar Dilution Plate rating [4] | Agar Dilution Plate rating [5] | Antibacterial Activity rating [6] | Antibacterial Activity rating [7] | Agar Dilution Plate rating [8] | disease control index ([9]; 150 ppm) | disease control index ([9]; 300 ppm) | Agar Dilution Plate rating [10] | disease control index ([11]; 150 ppm) | disease control index ([11]; 300 ppm) | Antibacterial Activity rating [12] | further results
1 | CN(C)C(=S)SCC(CSC(=S)N(C)C)[N+](=O)[O-] [Example 1, 2-Nitrotrimethylene Dimethyldithiocarbamate] | 100% | 100% | 100% | 100% | 100% | 100% | 100% | 100% | 100% | 5 (100% effectiveness of the test compound against the specified organism) | 0 | 0 | 0 | 0 | 2 | 2 | 5 (100% effectiveness of the test compound against the specified organism) | 3 | 4 | 5 | disease control index ([9]; 600 ppm): 3; disease control index ([9]; 1200 ppm): 3; disease control index ([11]; 600 ppm): 4; disease control index ([11]; 1200 ppm): 5; disease control index [13]: 3 and 0; Agar Dilution Plate rating [14]: 5 (100% effectiveness of the test compound against the specified organism); Agar Dilution Plate rating [15]: 0; Agar Dilution Plate rating [16]: 0; Agar Dilution Plate rating [17]: 0; Agar Dilution Plate rating [18]: 0
2 | O=[N+]([O-])C(CSC(=S)N1CCCCC1)CSC(=S)N1CCCCC1 [Example 3, 2-Nitrotrimethylene 1-Piperidinecarbodithioate] | – | – | – | – | – | – | – | – | – | – | – | – | – | – | 5 | 5 | – | 4 | 4 | – | disease control index [19]: 4
3 | O=[N+]([O-])CC(SC(=S)N1CCCC1)c1ccccc1 (stereo not drawn) [Example 15, α-(Nitromethyl)benzyl 1-pyrrolidinecarbodithioate] | – | – | – | – | – | – | – | – | – | – | – | – | – | – | 4 | 4 | – | – | – | – | disease control index [19]: 5
4 | COc1ccc(C(C[N+](=O)[O-])SC(=S)N(C)C)cc1OC (stereo not drawn) [Example 25, 3,4-Dimethoxy-α-(nitromethyl)benzyl Dimethyldithiocarbamate] | 0% | 100% | 100% | 100% | 100% | 100% | 0% | 100% | 100% | 5 (100% effectiveness of the test compound against the specified organism) | 0 | 5 | 5 | 5 (100% effectiveness of the test compound against the specified organism) | 3 | 4 | 5 (100% effectiveness of the test compound against the specified organism) | 5 | 5 | 5 | disease control index ([9]; 600 ppm): 5; disease control index ([9]; 1200 ppm): 4; disease control index ([11]; 600 ppm): 5; disease control index ([11]; 1200 ppm): 5; disease control index [13]: 5; Agar Dilution Plate rating [14]: 5 (100% effectiveness of the test compound against the specified organism); Agar Dilution Plate rating [15]: 0; Agar Dilution Plate rating [16]: 0; Agar Dilution Plate rating [17]: 0; Agar Dilution Plate rating [18]: 5 (100% effectiveness of the test compound against the specified organism)
5 | CN(C)C(=S)SC(C[N+](=O)[O-])c1ccccc1Cl (stereo not drawn) [Example 27, o-Chloro-α-(nitromethyl)benzyl Dimethyldithiocarbamate] | 0% | 100% | 100% | 100% | 100% | 100% | 0% | 100% | 100% | 5 (100% effectiveness of the test compound against the specified organism) | 0 | 5 | 9 | 5 (100% effectiveness of the test compound against the specified organism) | 2 | 4 | 5 (100% effectiveness of the test compound against the specified organism) | 2 | 2 | 5 | disease control index ([9]; 600 ppm): 4; disease control index ([9]; 1200 ppm): 4; disease control index ([11]; 600 ppm): 4; disease control index ([11]; 1200 ppm): 4; disease control index [13]: 5 and 0; Agar Dilution Plate rating [14]: 5 (100% effectiveness of the test compound against the specified organism); Agar Dilution Plate rating [15]: 0; Agar Dilution Plate rating [16]: 5 (100% effectiveness of the test compound against the specified organism); Agar Dilution Plate rating [17]: 0; Agar Dilution Plate rating [18]: 5 (100% effectiveness of the test compound against the specified organism)
6 | CN(C)C(=S)SC(C[N+](=O)[O-])c1ccc(Br)cc1 (stereo not drawn) [Example 30, p-Bromo-α-(nitromethyl)benzyl Dimethyldithiocarbamate] | 100% | 100% | 100% | 100% | 0% | 100% | 0% | 100% | 100% | 0 | 0 | 0 | 0 | 0 | 5 | 5 | 5 (100% effectiveness of the test compound against the specified organism) | 2 | 3 | 5 | disease control index ([9]; 600 ppm): 5; disease control index ([9]; 1200 ppm): 5; disease control index ([11]; 600 ppm): 3; disease control index ([11]; 1200 ppm): 4; disease control index [13]: 5; Agar Dilution Plate rating [14]: 5 (100% effectiveness of the test compound against the specified organism); Agar Dilution Plate rating [15]: 0; Agar Dilution Plate rating [16]: 0; Agar Dilution Plate rating [17]: 5 (100% effectiveness of the test compound against the specified organism); Agar Dilution Plate rating [18]: 5 (100% effectiveness of the test compound against the specified organism)
7 | CN(C)C(=S)SC(C[N+](=O)[O-])c1cccs1 (stereo not drawn) [Example 33, α-(Nitromethyl)-2-thenyl Dimethyldithiocarbamate] | 100% | 100% | 100% | 100% | 100% | 100% | 0% | 100% | 100% | 5 (100% effectiveness of the test compound against the specified organism) | 0 | 0 | 0 | 0 | 5 | 5 | 5 (100% effectiveness of the test compound against the specified organism) | 5 | 5 | 5 | disease control index [13]: 5; Agar Dilution Plate rating [14]: 5 (100% effectiveness of the test compound against the specified organism); Agar Dilution Plate rating [15]: 0; Agar Dilution Plate rating [16]: 0; Agar Dilution Plate rating [17]: 0; Agar Dilution Plate rating [18]: 0
